The results in this text go back to patent publication EP4810508A1, “ARABINOSE DERIVATIVE COMPOUND, AND COMPOSITION COMPRISING SAME FOR PREVENTING OR TREATING DEGENERATIVE BRAIN DISEASES” (Digmbio. Inc., priority 2023, dated 2025).

The subject of assay [1] is male ICR mice. As to the kind of experiment: Scopolamine-induced cognitive impairment model: passive avoidance test (PAT). In kind it is in vivo. From the text:
(§1) A memory loss rodent animal model induced by scopolamine intraperitoneal administration is used, and an evaluation method for memory uses a Y-maze test and a passive avoidance test (PAT). Scopolamine is a representative experimental model showing an impairment of cognitive function similar to AD patients by blocking neurotransmitters when administered to an animal as an antagonist of a muscarinic acetylcholine receptor, and as a cognitive function evaluation technique, a Y-maze test and a passive avoidance experiment, which are general and representative methods, were used, and in order to objectify the efficacy levels of the compounds, a group administered with donepezil (Aricept, Eisa) as a positive control material was separately provided to compare the efficacy levels of the compounds.
(§2) In order to evaluate cognitive function, 5-week-old male ICR mice were used, the compounds to be evaluated were prepared at a dose of 50 mg/kg/ml and repeatedly orally administered at a predetermined time for 7 days, and the positive control material was carried out at 5 mg/kg/ml. After the last administration, after 30 minutes of intraperitoneal administration of 1 mg/kg/2 ml of scopolamine, a Y-maze test and a passive avoidance test, which are cognitive function evaluations, were performed.
In addition, the passive avoidance test was conducted using an avoidance learning box (Jeondo B&P, Korea, Seoul), and the avoidance learning box is divided into a dark room and a bright room, and when a laboratory animal is put into a bright room, the subject goes beyond the dark room. At the moment, an electric shock of 0.5 mA is applied for 5 seconds, and when the next day experimental animal is put back into a bright room, an electric shock in a dark room is memorized and stay in a bright room. In this case, a step-through latency is measured to evaluate memory. The efficacy of the compounds of the present invention against the normal group and the control group in the Y-maze test and the passive avoidance test was described in the following Table 3 (Scopolamine-induced cognitive impairment model result).

For assay [2], the system named is male ICR mice. As to the kind of experiment: Scopolamine-induced cognitive impairment model: Y-maze test. In kind it is in vivo.
Excerpt: as §1, §2
The Y-maze test is a method for evaluating the ability to sequentially act as an experiment for measuring short-term memory. The measurement equipment is composed of three branches, each branch has a length of 42 cm, a width of 3 cm, and a height of 12 cm, and an angle at which three branches are folded is 120°. Experimental animals are put into each branch for 8 minutes, and the number of times of entering the branches to the tail of the experimental animal and the case of being sequentially received in each branch are scored (actual alternation). The alternation behavior is defined as entering not to overlap all three, and is calculated by the following equation. [formula]

Another assay deals with HRE/Luc/HEK293 cells. As to the kind of experiment: HRE (Hypoxia Response Element) luciferase assay. It counts as cell-based, human. In short, it runs like this:
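HRE-luciferase HEK293 cells in MEM/10% FBS pretreated with compound 6 h, then held under hypoxia (0.1% O2) 18 h; luminescence read after lysis. Scored as fold increase over vehicle, with twofold threshold at 100, 10 or 1 µM.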

With `O[C@@H]1[C@@H](O)[C@@H](Oc2ccc(Cc3ccc(F)cc3)cc2)OC[C@@H]1O` [Example 13, (2R,3R,4S,5S)-2-(4-(4-fluorobenzyl)phenoxy)tetrahydro-2H-pyran-3,4,5-triol], the percent recovery of memory in passive avoidance test (normal group = 100, scopolamine control = 0) at 50 mg/kg in the assay with male ICR mice [1] (Mus musculus, po, 168 h, read-out: in vivo(effect) PAT (%)) was 37%. For the same molecule, in the assay with male ICR mice [1] (time staying in bright room (step-through latency), scopolamine 1 mg/kg i.p., compounds 50 mg/kg oral for 7 days, donepezil 5 mg/kg (avg.)), the “in vivo PAT” value turned out to be 149 s. Also, in the assay on male ICR mice [2] (Mus musculus, po, 168 h, read-out: in vivo(effect) Y-maze (%)), the percent recovery of cognitive function (Y-maze) at 50 mg/kg worked out at 17%. Besides, the “in vivo Y-maze (%)” value in the assay on male ICR mice [2] (spontaneous alternation, scopolamine 1 mg/kg i.p., compounds 50 mg/kg oral for 7 days, donepezil 5 mg/kg (avg.)) turned out to be 57%. The fold induction at 10 µM in the assay on HRE/Luc/HEK293 cells (Homo sapiens, HEK293, 10uM, fold increase of HRE expression, hypoxic conditions (O2 0.1%) 18 hours, Table 2, read-out: HRE-increasing 10uM) is 1.4. For the same molecule, in the assay on HRE/Luc/HEK293 cells (Homo sapiens, HEK293, 100uM, fold increase of HRE expression, hypoxic conditions (O2 0.1%) 18 hours, Table 2, read-out: HRE-increasing 100uM), the fold induction at 100 µM was 2.4. For the same molecule, in the assay with HRE/Luc/HEK293 cells (increase in HRE expression levels by the test substance relative to the vehicle in HRE/Luc/HEK293 cells), the HRE assay entry was “••”.
